Source: PubChem BioAssay (NCI)
Where “and” joins values, the source holds several entries; their conditions need not be identical. Equal entries are not always repeated.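 How tested: cells in 96-well plates exposed to compound for 48 hours at five concentrations. GI50 is the concentration that inhibits growth by half. At the TGI there is no net growth.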

Experiments:
Experiment in all cases: growth of human tumour cells (NCI), 48 h
[1] = tested on: DU-145 prostate
[2] = tested on: 786-0 renal
[3] = tested on: LOX IMVI melanoma
[4] = tested on: T-47D breast
[5] = tested on: CCRF-CEM leukemia
[6] = tested on: A549 NSCLC
[7] = tested on: NCI-H23 lung
[8] = tested on: CAKI-1 renal
[9] = tested on: DMS 273 small cell lung
[10] = tested on: HOP-18 NSCLC

SMILES	GI50 [1]	TGI [1]	GI50 [2]	TGI [2]	GI50 [3]	TGI [3]	GI50 [4]	TGI [4]	GI50 [5]	TGI [5]	GI50 [6]	TGI [6]	GI50 [7]	TGI [7]	GI50 [8]	TGI [8]	TGI [9]	TGI [10]
Cc1ccc(C(=O)NCCCOc2ccc(N3C(N)=NC(N)=NC3(C)C)cc2Cl)cc1S(=O)(=O)F	> 100 µM	> 100 µM	80 µM	> 100 µM	5.05 µM	> 100 µM	> 100 µM	> 100 µM	5.33 µM	> 100 µM	39.5 µM	> 100 µM	12.8 µM	> 100 µM	> 100 µM	> 100 µM	–	–
Cc1coc2c1C(=O)C(=O)c1ccccc1-2	–	–	–	3.24 µM	–	1.05 µM	–	–	–	5.49 µM	–	4.07 µM	–	4.09 µM	–	3.63 µM	3.33 µM	–
Cn1c(=O)nc2n(-c3ccc(Cl)cc3)c(-c3ccccc3)c(-c3ccccc3)nc-2c1=O	–	–	–	> 100 µM	–	–	–	–	–	77.1 µM	–	> 100 µM	–	> 100 µM	–	> 100 µM	59.3 µM	> 100 µM
CC(C)(C)c1cc(C(=O)Nc2ccc(C(=O)NCCN)cc2)cc(C(C)(C)C)c1	3.46 µM	12.4 µM	1.56 µM	3.07 µM	1.65 µM	3.16 µM	2.07 µM	5.58 µM	2.54 µM	7.28 µM	3.15 µM	9.41 µM	3.19 µM	14.4 µM	15.5 µM	32.9 µM	–	–
CO[C@@H]1CCN(c2nccc(Nc3cc4c(C(C)C)ccc(N5CC(CS(C)(=O)=O)[C@H]5C)c4cn3)n2)C[C@@H]1F (some centres not stated)	2.45 µM	45.1 µM	7.18 µM	> 100 µM	4.34 µM	16.8 µM	2.47 µM	13.4 µM	4.55 µM	> 100 µM	3.06 µM	> 100 µM	3.7 µM	20.4 µM	2.32 µM	> 100 µM	–	–
CCN(CC)c1c(-c2ccccc2)n[nH]c1C(=O)OC	36.9 µM	> 100 µM	32.7 µM	96.2 µM	35.3 µM	> 100 µM	17.5 µM	64.8 µM	22.8 µM	71 µM	31.6 µM	> 100 µM	42.4 µM	> 100 µM	25.8 µM	55.5 µM	–	–
Nc1ccccc1C#C/C=C\C#CC#C/C=C\C#Cc1ccccc1N	2.97 µM	13.5 µM	9.76 µM	24.6 µM	1.75 µM	11.6 µM	6.47 µM	> 100 µM	0.0892 µM	16 µM	2.77 µM	16.4 µM	5.17 µM	23.3 µM	2.74 µM	11.8 µM	–	–
CCC/C=C\C=C\C1(NS(=O)(=O)c2ccc(C)cc2)CCC(C(C)(C)C)CC1 (configuration not stated)	–	–	–	29.9 µM	–	–	–	–	–	24.2 µM	–	38.6 µM	–	55 µM	–	61.9 µM	27.9 µM	> 100 µM
O=[N+]([O-])c1cccc(-c2nc(-c3ccc(Cl)cc3Cl)cn2-c2ccccc2)c1	0.574 µM	1.19 µM	0.995 µM	2.88 µM	2.98 µM	> 30.7 µM	0.922 µM	2.9 µM	–	> 18.7 µM	0.787 µM	1.92 µM	5.15 µM	> 27.1 µM	0.477 µM	1.21 µM	–	–
CS(=O)(=O)Nc1cc(-c2ccc3ncnc(Nc4ccc(F)c(Cl)c4)c3c2)cnc1Cl	0.738 µM and 0.766 µM	11.1 µM and 13.6 µM	0.638 µM and 0.671 µM	5.45 µM and 6.65 µM	0.503 µM and 0.468 µM	3.49 µM and 2.78 µM	0.0323 µM and 0.0901 µM	0.437 µM and 0.892 µM	0.378 µM and 0.309 µM	11.9 µM and 28.1 µM	1.14 µM and 1.26 µM	4.67 µM and 5.81 µM	0.484 µM and 0.57 µM	14.7 µM and 10.6 µM	0.455 µM and 0.326 µM	9.55 µM and 2.23 µM	–	–
Cc1cccc(C)c1NC(=O)CCc1nnc2s/c(=C\c3ccc(N(C)C)cc3)c(=O)n12	–	–	–	> 100 µM	–	> 100 µM	–	–	–	> 100 µM	–	> 100 µM	–	> 100 µM	–	> 100 µM	> 100 µM	–
CC(C)(C)OC(=O)NCCCCn1c2c(c3ccccc3c1=O)C(=O)c1ccccc1-2	9.59 µM	> 100 µM	21.7 µM	55.6 µM	12.5 µM	36.7 µM	21.9 µM	79.8 µM	9.52 µM	> 100 µM	17.6 µM	44.5 µM	20.8 µM	43.4 µM	10.7 µM	37.2 µM	–	–
CN1CCN(c2ccc(OC(F)(F)F)c(Nc3ncc4c(n3)-c3c(c(C(N)=O)nn3CCO)CC4)c2)CC1	0.0349 µM and 0.0417 µM	> 100 µM	0.428 µM and 0.466 µM	32.4 µM and > 10 µM	0.0372 µM and 0.0519 µM	16.1 µM and > 3.87 µM	0.944 µM and 0.538 µM	40.8 µM and > 10 µM	0.0197 µM and 0.0283 µM	28.5 µM	0.0745 µM and 0.169 µM	16 µM and > 10 µM	0.0397 µM and 0.0732 µM	17.6 µM and > 10 µM	0.584 µM and 0.831 µM	> 44.8 µM	–	–
O=C1/C(=C/c2ccc3c(c2)OCCO3)CCC/C1=C\c1ccc2c(c1)OCCO2	–	–	–	> 100 µM	–	> 100 µM	–	–	–	> 100 µM	–	> 100 µM	–	–	–	> 100 µM	43.9 µM	80.2 µM
Cc1cc(C(=O)/C=C/c2ccc[nH]2)ccc1-n1ccc(C(F)(F)F)n1	24.8 µM	> 100 µM	3.54 µM	> 100 µM	34.8 µM	> 100 µM	4.78 µM	> 100 µM	2.55 µM	> 100 µM	6.82 µM	> 100 µM	14.9 µM	> 100 µM	3.04 µM	28.7 µM	–	–
O=c1c2cc(Br)cc(Br)c2nc(CCCl)n1-c1ccc(O)c([N+](=O)[O-])c1	–	–	–	32.4 µM	–	–	–	–	–	43.7 µM	–	31.7 µM	–	46.5 µM	–	–	36.9 µM	30.4 µM
CCc1cccc(C(C)C)c1NC(=O)CCl	–	–	–	> 100 µM	–	> 100 µM	–	–	–	> 100 µM	–	> 100 µM	–	> 100 µM	–	> 100 µM	> 100 µM	–
